Source: patent publication US20120101153A1, “ROCAGLAOL DERIVATIVES AS CARDIOPROTECTANT AGENTS AND AS ANTINEOPLASTIC AGENTS” (Universite De Strasbourg, priority 2008, published 2012)
Where two headings read alike, the source gives them in different places.

Key:
[1] = tested on: SK-OV3 cells (OV3); test: MTS assay, cytotoxicity, OV3; conditions: Homo sapiens, SK-OV-3, read-out: Cytotoxicity (IC50)
Protocol: (§1) The human cell lines HL60 (promyeocytic leukaemia), MDA435 (breast ductal carcinoma; ATCC reference HBT129) and MDA231 (breast adenocarcinoma; ATCC reference HBT26) were obtained from ATCC. […] SK-OV3 cells (or OV3, ATCC reference HTB77) were kindly provided by NCI (Frederick, Md.).
(§2) The cell lines HCT116, HCT15, MCF7, MDA435, MDA231, PC3, OV3, HL60R and HL60 were grown in RPMI medium, in particular supplemented with 10% fetal calf serum, in the presence of penicillin, streptomycin and fungizone in 75 cm^2 flask under 5% CO2. […] The medium was changed every 2-3 days.
(§3) Cells were plated in 96-well tissue culture plates in 200 μl medium and cultured during 24 h before to be treated with compounds dissolved in DMSO (compound concentrations at a range of 0.5 nM to 10 μM) using a Biomek 2000 or 3000 (Beckman). Controls received the same volume of DMSO (1% final volume). After a 72 h exposure, MTS reagent (Promega) was added and incubated for 3 h at 37° C. The absorbance was then monitored at 490 nm and results were expressed as the value [1-(OD490 treated/OD490 control)×100] corresponding to the percentage of inhibition of cell proliferation.

[2] = tested on: PC3 (prostate adenocarcinoma); test: MTS assay, cytotoxicity, PC3; conditions: Homo sapiens, read-out: Cytotoxicity (IC50)
Protocol: (§4) The human cell lines HCT116 (colon adenocarcinoma), PC3 (prostate adenocarcinoma) and HCT15 (colon adenocarcinoma) were obtained from ECACC (Wiltshire, UK).
(§5) The cell lines HCT116, HCT15, MCF7, MDA435, MDA231, PC3, OV3, HL60R and HL60 were grown in RPMI medium, in particular supplemented with 10% fetal calf serum, in the presence of penicillin, streptomycin and fungizone in 75 cm^2 flask under 5% CO2.
as §3

[3] = tested on: HL60R (resistant HL60 cells); test: MTS assay, cytotoxicity, HL60R; conditions: Homo sapiens, read-out: Cytotoxicity (IC50)
Protocol: as §5, §3

[4] = tested on: MDA435 (breast ductal carcinoma); test: MTS assay, cytotoxicity, MDA435; conditions: Homo sapiens, MDA435, read-out: Cytotoxicity (IC50)
Protocol: as §1, §2, §3

[5] = tested on: MDA231 (breast adenocarcinoma); test: MTS assay, cytotoxicity, MDA231; conditions: Homo sapiens, MDA-MB-231, read-out: Cytotoxicity (IC50)
Protocol: as §1, §2, §3

[6] = tested on: KB (epidermoid carcinoma); test: MTS assay, inhibition of cell proliferation, KB; conditions: Homo sapiens, read-out: Cytotoxicity (IC50)
Protocol: The human cell lines KB (epidermoid carcinoma) and HepG2 (hepatocarcinoma) were obtained from ECACC (Salisbury, UK) and grown in D-MEM medium supplemented with 10% fetal calf serum, in the presence of penicilline, streptomycine and fungizone in 75 cm^2 flask under 5% CO2.
as §3

[7] = tested on: HL60 (promyeocytic leukaemia); test: MTS assay, inhibition of cell proliferation, HL60
Protocol: as §1, §2, §3

[8] = tested on: HCT116 (colon adenocarcinoma); test: MTS assay, inhibition of cell proliferation, HCT116; conditions: Homo sapiens, HCT-116, read-out: Cytotoxicity (IC50)
Protocol: as §4, §5, §3

[9] = tested on: H9c2 cardiomyocytes; conditions: 10 or 100 nM; apoptosis induced by doxorubicin in H9c2 cells
Protocol: The medium was changed every 2-3 days.
H9c2 cells were plated for 24 h in 100 mm Petri dishes at 0,7×10^4 cells/cm^2. Next, the cells were washed and cultured for 12 h in glucose-free medium (Gibco, DMEM w-L-glutamine, w/o D-glucose, sodium pyruvate) supplemented with only 1% fetal calf serum. […] Cells were washed, and subsequently FACS analyses were performed.
Apoptosis was analysed by fluorescence-activated cell sorting analysis (FACS-Calibur, Becton-Dickinson Biosciences). 0,5×10^6 cells were harvested, washed with Annexin Binding Buffer (0,01 M HEPES, 0,14 M NaCl, 2,5 mM CaCl2) and labeled with annexin V (dilution 1:50) and propidium iodide (6,7 μg/ml). All assays were performed at least in triplicate, and the results were analyzed by BD Cell Quest Pro software (Becton-Dickinson Biosciences, Le Pont De Claix, France).

[10] = Homo sapiens, HL-60, read-out: Cytotoxicity (IC50)
[11] = read-out: Cytotoxicity (IC50), HL60, MTS, Table 2

SMILES	IC50 [1]	IC50 [2]	IC50 [3]	IC50 [4]	IC50 [5]	IC50 [6]	IC50 [7, 10]	IC50 [8]	Activity for cytotoxicity and cardioprotection (FIG. 13) [9]	IC50 [7, 11]
COC(=O)[C@H]1[C@@H](O)[C@@]2(O)c3ccc(OC)cc3O[C@@]2(c2ccc(Br)cc2)[C@@H]1c1ccccc1 (racemic) [FL5, Methyl 3a-(4-bromophenyl)-1,8b-dihydroxy-8-methoxy-1-oxo-3-phenyl-2,3-3a,8b-tetrahydro-cyclopenta[b]benzofuran-2-carboxylate]	101 nM	174 nM	44 nM	65 nM	27 nM	165 nM	65 nM	96 nM		
COc1ccc2c(c1)O[C@@]1(c3ccc(Br)cc3)[C@H](c3ccccc3)C[C@@H](O)[C@@]21O (racemic) [FL6, 3a-(4-Bromophenyl)-8-methoxy-3-phenyl-1,2,3,3a-tetrahydro-cyclopenta[b]benzofuran-1,8b(1H)-diol]	251 nM	224 nM	67 nM	205 nM	48 nM	255 nM	115 nM	108 nM	no or weak such activity	
COC(=O)[C@H]1[C@@H](O)[C@@]2(O)c3c(OC)cc(OC)cc3O[C@@]2(c2ccc(Br)cc2)[C@@H]1c1ccccc1 (racemic) [FL10, Methyl 3a-(4-bromophenyl)-1,8b-dihydroxy-6,8-dmethoxy-1-oxo-3-phenyl-2,3-3a,8b-tetrahydro-cyclopenta[b]benzofuran-2-Carboxylate]	21 nM	29 nM	14 nM	15 nM	8.7 nM	24 nM	14 nM	18 nM		
COC(=O)[C@H]1[C@@H](O)[C@@]2(O)c3ccc(OCCCO)cc3O[C@@]2(c2ccc(OC)cc2)[C@@H]1c1ccccc1 (racemic) [FL11]	1460 nM	2520 nM	1280 nM	1110 nM	1070 nM	1710 nM	1120 nM	1420 nM	no or weak such activity	
COc1cc(OC)c2c(c1)O[C@@]1(c3ccc(Br)cc3)[C@H](c3ccccc3)[C@@H](C(=O)N(C)C)[C@@H](O)[C@@]21O (racemic) [FL12, 3a-(4-Bromophenyl)-1,8b-dihydroxy-6,8-dimethoxy-N,N-dimethyl-1-oxo-3-phenyl-2,3-3a,8b-tetrahydro-cyclopenta[b]benzofuran-2-carboxamide]	6.7 nM	7.2 nM	12 nM	3.2 nM	2.7 nM	7 nM	4 nM	5.9 nM		
CNC(=O)[C@H]1[C@@H](O)[C@@]2(O)c3c(OC)cc(OC)cc3O[C@@]2(c2ccc(Br)cc2)[C@@H]1c1ccccc1 (racemic) [FL13, 3a-(4-Bromophenyl)-1,8b-dihydroxy-6,8-dimethoxy-N-methyl-1-oxo-3-phenyl-2,3-3a,8b-tetrahydro-cyclopenta[b]benzofuran-2-carboxamide]	3.8 nM	3.3 nM	16 nM	2.6 nM	1.9 nM	4 nM	2 nM	3.8 nM		
COc1cc(OC)c2c(c1)O[C@@]1(c3ccc(Br)cc3)[C@H](c3ccccc3)[C@@H](C(N)=O)[C@@H](O)[C@@]21O (racemic) [FL14, 3a-(4-Bromophenyl)-1,8b-dihydroxy-6,8-dimethoxy-1-oxo-3-phenyl-2,3-3a,8b-tetrahydro-cyclopenta[b]benzofuran-2-carboxamide]	2.1 nM	3.7 nM	18 nM	1.5 nM	1 nM	2 nM	1 nM	1.8 nM		
COc1ccc([C@@]23Oc4cc(OC)cc(OC)c4[C@]2(O)[C@H](O)C[C@H]3c2cccc(F)c2)cc1 (racemic) [FL15, 3a-(4-methoxyphenyl)-6,8-dimethoxy-3-(3-fluorophenyl)-1,2,3,3a-tetrahydro-cyclopenta[b]benzofuran-1,8b(1H)-diol]						60 nM				
COC(=O)[C@H]1[C@@H](O)[C@@]2(O)c3c(OC)cc(OC)cc3O[C@@]2(c2ccc(OC)cc2)[C@@H]1c1cccc(F)c1 (racemic) [FL16, Methyl 3a-(4-methoxyphenyl)-1,8b-dihydroxy-6,8-dimethoxy-1-oxo-3-(3-fluorophenyl)-2,3-3a,8b-tetrahydro-cyclopenta[b]benzofuran-2-carboxylate]						28 nM				
COc1cc(OC)c2c(c1)O[C@@]1(c3ccc(Br)cc3)[C@H](c3cccc(F)c3)[C@@H](C(N)=O)[C@@H](O)[C@@]21O (racemic) [FL18, 3a-(4-Bromophenyl)-1,8b-dihydroxy-6,8-dimethoxy-1-oxo-3-(3-fluorophenyl)-2,3-3a,8b-tetrahydro-cyclopenta[b]benzofuran-2-carboxamide]						14 nM				
COc1cc(OC)c2c(c1)O[C@@]1(c3ccc(Br)cc3)[C@H](c3ccccc3)C[C@@H](OC=O)[C@@]21O (racemic) [FL19, 3a-(4-Bromophenyl)-6,8-dimethoxy-3-phenyl-1,2,3,3a-tetrahydro-cyclopenta[b]benzofuran-1,8b(1H)-diol 1-formate]							7 nM			
COc1cc(OC)c2c(c1)O[C@@]1(c3ccc(Br)cc3)[C@H](c3ccccc3)C[C@@H](OC(C)=O)[C@@]21O (racemic) [FL20, 3a-(4-Bromophenyl)-6,8-dimethoxy-3-phenyl-1,2,3,3a-tetrahydro-cyclopenta[b]benzofuran-1,8b(1H)-diol 1-acetate]							40 nM			
CCC(=O)O[C@@H]1C[C@@H](c2ccccc2)[C@]2(c3ccc(Br)cc3)Oc3cc(OC)cc(OC)c3[C@]12O (racemic) [FL21, 3a-(4-Bromophenyl)-6,8-dimethoxy-3-phenyl-1,2,3,3a-tetrahydro-cyclopenta[b]benzofuran-1,8b(1H)-diol 1-propionate]							50 nM			
COc1cc(OC)c2c(c1)OC1(c3ccc(Br)cc3)C(c3ccccc3)CC(NC=O)C21O (stereo not drawn) [FL22, 3a-(4-Bromophenyl)-6,8-dimethoxy-8b-hydroxy-3-phenyl-1,2,3,3a-tetrahydro-cyclopenta[b]benzofuran-1,8b(1H)-formamide]										44 nM
COc1cc(OC)c2c(c1)OC1(c3ccc(Br)cc3)C(c3ccccc3)CC(NC=O)C21O (stereo not drawn) [FL23, 3a-(4-Bromophenyl)-6,8-dimethoxy-8b-hydroxy-3-phenyl-1,2,3,3a-tetrahydro-cyclopenta[b]benzofuran-1,8b(1H)-formamide]										2 nM
COc1cc(OC)c2c(c1)OC1(c3ccc(Br)cc3)C(c3ccccc3)CC(NS(C)(=O)=O)C21O (stereo not drawn) [FL24, 3a-(4-Bromophenyl)-6,8-dimethoxy-8b-hydroxy-3-phenyl-1,2,3,3a-tetrahydro-cyclopenta[b]benzofuran-1,8b(1H)-methanesulfonamide]										580 nM
COc1cc(OC)c2c(c1)OC1(c3ccc(Br)cc3)C(c3ccccc3)CC(NS(C)(=O)=O)C21O (stereo not drawn) [FL25, 3a-(4-Bromophenyl)-6,8-dimethoxy-8b-hydroxy-3-phenyl-1,2,3,3a-tetrahydro-cyclopenta[b]benzofuran-1,8b(1H)-methanesulfonamide]										16 nM
CC(=O)O[C@@]12CO[C@@H]1C[C@H](O)[C@@]1(C)C(=O)[C@H](O)C3=C(C)[C@@H](OC(=O)[C@H](O)[C@@H](NC(=O)OC(C)(C)C)c4ccccc4)C[C@@](O)([C@@H](OC(=O)c4ccccc4)[C@H]21)C3(C)C [Taxotere, reference compound]	0.51 nM	1.4 nM	531 nM	0.25 nM	0.018 nM	0.17 nM	0.5 nM	0.52 nM		
CC[C@]1(O)C[C@@H]2CN(CCc3c([nH]c4ccccc34)[C@@](C(=O)OC)(c3cc4c(cc3OC)N(C)[C@H]3[C@@](O)(C(=O)OC)[C@H](OC(C)=O)[C@]5(CC)C=CCN6CC[C@]43[C@@H]65)C2)C1 [Vinblastin, vinblastine, reference compound]	2.7 nM	5.5 nM	> 100 nM	1.24 nM	0.63 nM	0.8 nM	1.11 nM	1.42 nM		
